# In patent publication US20250360145A1, “CSF-1R INHIBITORS AND USES THEREOF” (Myrobalan Therapeutics, Inc., priority 2022, published 2025):
# Read-outs that look alike come from different tables or passages of the source.
# How the values were obtained:
# [1] = system: EOC2 cell; assay: Cell proliferation assay, EOC2; type: cell-based, mouse
# [2] = target: CSF-1R (Homo sapiens (Human), UniProt P07333); assay: Biochemical HTRF kinase assay, CSF-1R; conditions: Table 2; recombinant human CSF-1R;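 also: enzyme incubated with inhibitor plus a substrate and ATP mix for one hour at room temperature before HTRF detection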
# [3] = system: Ba/F3_CSF-1R (stably expressing human CSF-1R kinase); assay: Cell proliferation assay, Ba/F3_CSF-1R; type: cell-based
# [4] = Mus musculus, 72 h, EOC2 cells, 72 hours treatment, read-out: ECO2 EC50
# [5] = BaF3, 72 h, read-out: CSF-1R BaF3 EC50 (nM)
# [6] = BaF3, 72 h, Ba/F3_CSF-1R cells, 72 hours treatment, read-out: CSF-1R BaF3 EC50
# [7] = EOC2 cells, 72 hours treatment, read-out: ECO2 EC50
# CSF-1R, sequence (P07333 20-972): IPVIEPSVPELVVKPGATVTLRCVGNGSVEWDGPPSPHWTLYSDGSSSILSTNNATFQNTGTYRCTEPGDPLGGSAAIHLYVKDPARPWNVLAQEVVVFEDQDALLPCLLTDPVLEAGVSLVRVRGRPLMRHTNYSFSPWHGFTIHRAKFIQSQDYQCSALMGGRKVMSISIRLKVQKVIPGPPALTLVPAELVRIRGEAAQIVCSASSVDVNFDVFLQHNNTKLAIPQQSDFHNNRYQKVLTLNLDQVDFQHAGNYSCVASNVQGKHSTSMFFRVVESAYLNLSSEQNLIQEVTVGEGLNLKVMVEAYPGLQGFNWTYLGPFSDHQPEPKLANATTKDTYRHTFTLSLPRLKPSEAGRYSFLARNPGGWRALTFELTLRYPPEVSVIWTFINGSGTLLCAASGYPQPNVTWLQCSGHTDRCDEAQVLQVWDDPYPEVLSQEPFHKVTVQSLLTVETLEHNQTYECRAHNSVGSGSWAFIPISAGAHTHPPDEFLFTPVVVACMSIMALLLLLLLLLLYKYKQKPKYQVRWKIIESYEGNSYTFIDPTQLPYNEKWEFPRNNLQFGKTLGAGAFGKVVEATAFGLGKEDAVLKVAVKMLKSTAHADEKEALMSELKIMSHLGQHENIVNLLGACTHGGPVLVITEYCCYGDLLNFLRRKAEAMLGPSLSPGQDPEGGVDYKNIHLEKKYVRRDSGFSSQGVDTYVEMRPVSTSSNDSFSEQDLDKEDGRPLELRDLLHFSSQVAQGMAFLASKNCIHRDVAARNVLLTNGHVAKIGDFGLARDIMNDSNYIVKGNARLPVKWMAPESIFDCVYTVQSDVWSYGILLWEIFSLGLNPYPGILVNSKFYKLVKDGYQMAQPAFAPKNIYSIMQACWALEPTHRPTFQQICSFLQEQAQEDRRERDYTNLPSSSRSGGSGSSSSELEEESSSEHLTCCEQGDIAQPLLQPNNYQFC
SMILES,"EC50 [1, 4] [nM]",IC50 [2] [µM],"EC50 [3, 5] [nM]","EC50 [3, 6] [nM]","EC50 ([1]; Mus musculus, 72 h, read-out: ECO2 EC50 (nM)) [nM]","EC50 [1, 7] [nM]","EC50 ([3]; Ba/F3_CSF-1R cells, 72 hours treatment, read-out: CSF-1R BaF3 EC50) [nM]"
"COc1ccc(COc2ncc(Cc3ccnc4cc(-c5cccnc5)cnc34)cc2OC)nc1 [Example 140, 8-((5-methoxy-6-((5-methoxypyridin-2-yl)methoxy)pyridin-3-yl)methyl)-3-(pyridin-3-yl)-1,5-naphthyridine]",10.6,0.0094,9.8,,,,
COc1ccc(COc2ncc(Cc3ccnc4cc(N5CC(OC)C5)cnc34)cc2OC)nc1 [Example 141],3.7,0.0071,,5.8,,,
COc1ccc(COc2ncc(Cc3ccnc4cc(-n5cc(C)cn5)cnc34)cc2OC)nc1 [Example 142],4.8,0.0138,,7.3,,,
COc1ccc(COc2ncc(Cc3ccnc4cc(-n5ccnc5C)cnc34)cc2OC)nc1 [Example 143],57.5,0.0157,,45.9,,,
COc1ccc(COc2ncc(Cc3ccnc4cc(N5CC(F)(F)C5)cnc34)cc2OC)nc1 [Example 144],25.3,0.0113,,10.7,,,
COc1cnc2c(Cc3cnc(OCc4cc5cnccn5n4)c(OC)c3)ccnc2c1 [Example 145],178,0.0391,,229,,,
COc1ccc(COc2ncc(Cc3c(F)cnc4cc(OC)cnc34)cc2OC)nc1 [Example 146],> 1000,0.208,,> 1000,,,
COc1cnc2c(Cc3cnc(OCc4ccn5nccc5c4)c(OC)c3)ccnc2c1 [Example 147],78.8,0.0079,,60.9,,,
COc1cnc2c(Cc3cnc(OCc4ccc5ccnn5c4)c(OC)c3)ccnc2c1 [Example 148],49.8,0.0063,,37.3,,,
COc1cnc2c(Cc3cnc(OCc4cc5cccnc5[nH]4)c(OC)c3)ccnc2c1 [Example 149],91.2,0.0039,,61.6,,,
COc1cnc2c(Cc3cc(OC)c4nc(N5CCC(OC)CC5)ncc4c3)ccnc2c1 [Example 150],> 1000,0.947,,> 1000,,,
"COc1ccc(COc2ccc(Cc3ccnc4cc(OC)cnc34)cn2)nc1 [Example 151, 3-methoxy-8-((6-((5-methoxypyridin-2-yl)methoxy)pyridin-3-yl)methyl)-1,5-naphthyridine]",,0.0226,412,,280,,
COc1cnc2c(Cc3ccc4nc(N5CCC(OC)CC5)ncc4c3)ccnc2c1 [Example 152],> 1000,> 1,,> 1000,,,
COc1cnc2c(Cc3ccc4nc([C@H]5CC[C@@H](OC)CC5)cnc4c3)ccnc2c1 [Example 154],,0.0286,,329,,199,
COc1cnc2c(Cc3ccc4nc([C@H]5CC[C@@H](OC)CC5)cnc4c3)ccnc2c1 [Example 155],,0.258,,,,> 1000,607
COc1cnc2c(Cc3ccc4nc(C5CCOCC5)cn4c3)ccnc2c1 [Example 156],> 1000,> 1,,> 1000,,,
COc1cnc2c(Cc3ccc4nc(C5CCOCC5)cnc4c3)ccnc2c1 [Example 157],> 1000,0.543,,> 1000,,,
"COc1cnc2c(Cc3ccn4nc(C5CCOCC5)cc4c3)ccnc2c1 [Example 158, 3-methoxy-8-((2-(tetrahydro-2H-pyran-4-yl)pyrazolo[1,5-a]pyridin-5-yl)methyl)-1,5-naphthyridine]",> 1000,> 1,,> 1000,,,
